From patent US20210122763A1, “OGA INHIBITOR COMPOUNDS” (Janssen Pharmaceutica NV, priority 2018, published 2021)

Assays:
[1] = molecular target: T1, recombinant human Meningioma Expressed Antigen 5 (MGEA5), also referred to as O-GlcNAcase (OGA) (Homo sapiens, UniProt O60502); assay: OGA biochemical assay (inhibition of FM-GlcNAc hydrolysis, fluorescence); conditions: for IC50: read-out: Enzymatic hOGA, pIC50 (converted); for Emax: read-out: Enzymatic Emax (%)
T1 construct: Full length OGA enzyme was purchased at OriGene (cat #TP322411); purchased OriGene TP322411
T1 sequence (O60502 1-916): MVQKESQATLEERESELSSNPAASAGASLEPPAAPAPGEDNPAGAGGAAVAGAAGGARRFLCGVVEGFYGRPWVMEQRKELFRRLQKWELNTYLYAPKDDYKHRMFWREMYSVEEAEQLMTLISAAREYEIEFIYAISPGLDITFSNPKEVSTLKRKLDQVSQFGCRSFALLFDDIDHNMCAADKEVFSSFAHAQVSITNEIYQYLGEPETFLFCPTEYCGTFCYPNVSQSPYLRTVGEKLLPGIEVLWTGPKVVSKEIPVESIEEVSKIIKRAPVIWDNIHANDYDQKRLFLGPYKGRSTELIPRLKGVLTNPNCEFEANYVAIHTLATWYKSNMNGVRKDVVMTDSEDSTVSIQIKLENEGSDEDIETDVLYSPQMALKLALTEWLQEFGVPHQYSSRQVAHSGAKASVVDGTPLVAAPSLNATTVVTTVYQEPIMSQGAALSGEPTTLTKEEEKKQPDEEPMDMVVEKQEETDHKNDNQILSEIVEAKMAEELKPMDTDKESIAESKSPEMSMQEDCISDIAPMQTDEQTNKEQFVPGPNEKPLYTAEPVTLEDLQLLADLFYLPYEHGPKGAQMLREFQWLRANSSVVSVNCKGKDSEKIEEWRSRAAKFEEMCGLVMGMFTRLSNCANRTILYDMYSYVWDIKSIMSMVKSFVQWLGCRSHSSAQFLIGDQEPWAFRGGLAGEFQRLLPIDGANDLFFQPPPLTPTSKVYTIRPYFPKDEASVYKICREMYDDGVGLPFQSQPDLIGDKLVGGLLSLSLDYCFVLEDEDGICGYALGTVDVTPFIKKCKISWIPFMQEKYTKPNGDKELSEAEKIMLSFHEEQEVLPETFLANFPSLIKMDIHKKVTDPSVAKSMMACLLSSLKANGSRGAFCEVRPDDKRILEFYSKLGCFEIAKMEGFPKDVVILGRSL
How it was run: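 Full-length OGA at 2 nM was pre-incubated 60 min at room temperature with compound, then FM-GlcNAc at 100 uM final was added in citrate/phosphate buffer pH 7.2 with 0.005% Tween-20. After 6 h at room temperature, carbonate pH 11.0 stopped the reaction. Fluorescence read at 485/538 nm; IC50 and Hill coefficient from curve fit against no-inhibitor and saturating-standard controls.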

OGA = molecular target: T2, OGA (Homo sapiens, UniProt O60502); assay: OGA cellular assay (ICC detection of O-GlcNAcylated proteins in HEK293 cells inducible for P301L mutant human Tau); format: cell-based; conditions: 6 hours incubation; for Cellular Emax (%) / EC50: HEK293 cells inducible for P301L mutant human Tau; for Cellular Emax (%) / Emax: maximum = Thiamet G 200 uM; for EC50: read-out: Cellular hOGA, pEC50 (converted); for Emax: HEK293, HEK293 cells inducible for P301L mutant human Tau
T2 construct: HEK293 cells inducible for P301L mutant human Tau (isoform 2N4R) were established at Janssen; endogenous in cells; host or cells: HEK293 cells inducible for P301L mutant human Tau (2N4R)
T2 sequence (O60502 1-916): T1 sequence (O60502 1-916)
How it was run: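 HEK293 cells with inducible P301L 2N4R Tau, seeded in low-glucose medium, were exposed to compounds for 6 hours (0.2% DMSO), then PFA-fixed and stained with CTD110.6. Imaging intensity at 488 nm measured O-GlcNAcylation, with Hoechst nuclei counts for toxicity. IC50s came from non-linear regression, with Thiamet G at 200 uM as maximum inhibition.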

| SMILES | Enzymatic Emax (%) [1] | IC50 [1] | Cellular Emax (%) (OGA) | EC50 (OGA) | Emax [1] | Emax (OGA) |
| --- | --- | --- | --- | --- | --- | --- |
| COc1cc(OC2CCN(C(C)c3ccc4c(n3)OCCO4)CC2)cc(C)n1 (single isomer, unassigned) [Compound 53] | 55% | 7940 nM | −8% | > 1000 nM | – | – |
| Cc1cc(OC2CCN(C(C)c3cnc4c(c3)OCC4)CC2)cc(C)n1 (stereo not drawn) [Compound 58] | – | 1260 nM | – | – | 89% | 38% |
| CC(c1nc2c(cc1F)OCCO2)N1CCC(Oc2cnc(C(F)(F)F)nc2)CC1 (stereo not drawn) [Compound 168] | – | 12.6 nM | – | 200 nM | 96% | 75% |
| COc1cc(OC2CCN(C(C)c3nc4c(cc3F)OCCO4)CC2)cc(C)n1 (stereo not drawn) [Compound 15] | – | 5.01 nM | – | 50.1 nM | 102% | 72% |
| CC(c1ccc2c(n1)OCCO2)N1CCC(Oc2ccc(F)cn2)CC1 (stereo not drawn) [Compound 115] | – | 200 nM | – | > 1000 nM | 96% | 25% |
| Cc1cnc(OC2CCN(C(C)c3nc4c(cc3F)OCCO4)CC2)cc1C (stereo not drawn) [Compound 157] | – | 20 nM | – | 158 nM | 94% | 80% |
| Cc1cc(OC2CCN(C(C)c3ccc4c(n3)OCCO4)CC2)c(Cl)c(C)n1 (stereo not drawn) [Compound 66] | – | 79.4 nM | – | 251 nM | 96% | 73% |
| COc1cc(OC2CCN([C@@H](C)c3nc4nc(C)sc4cc3F)CC2)cc(C)n1 (single isomer, unassigned) [Compound 81] | – | 1.58 nM | – | 31.6 nM | 93% | 87% |
| Cc1cc(OC2CCN(C(C)c3ccc4sc(C)nc4n3)CC2)cc(C(F)(F)F)n1 (stereo not drawn) [Compound 21] | – | 50.1 nM | – | 813 nM | 101% | 55% |
| Cc1cc(OC2CCN(C(C)c3cnc4sc(C)nc4c3)CC2)cc(C)n1 (stereo not drawn) [Compound 40] | – | 126 nM | – | 631 nM | 101% | 59% |
| COc1cc(OC2CCN(C(C)c3ccc4c(n3)OCCO4)CC2)ccn1 (stereo not drawn) [Compound 72] | – | 31.6 nM | – | 251 nM | 101% | 60% |
| Cc1cc(OC2CCN(C(C)c3nc4c(cc3F)OCCO4)CC2)cc(C)n1 (stereo not drawn) [Compound 4] | – | 12.6 nM | – | 39.8 nM | 99% | 76% |
| Cc1cc(OC2CCN(C(C)c3nc4nc(C)sc4cc3F)CC2)nc(C)n1 (stereo not drawn) [Compound 33] | – | 15.8 nM | – | 251 nM | 100% | 65% |
| Cc1cc(C)nc(OC2CCN(C(C)c3ccc4c(n3)OCCO4)CC2)c1 (stereo not drawn) [Compound 71] | – | 126 nM | – | > 1000 nM | 100% | 35% |
| CC(c1ccc2c(n1)OCCO2)N1CCC(COc2ccc(C(F)(F)F)cn2)CC1 (stereo not drawn) [Compound 43] | – | 501 nM | – | > 1000 nM | 96% | 25% |
| CC(c1ccc2c(n1)OCCO2)N1CCC(Oc2cnc(C3CC3)nc2)CC1 (stereo not drawn) [Compound 120] | – | 50.1 nM | – | 251 nM | 98% | 87% |
| Cc1cc(OC2CCN(C(C)c3ccc4c(n3)OCCO4)CC2)cc(C2CC2)n1 (stereo not drawn) [Compound 125] | – | 31.6 nM | – | 126 nM | 96% | 91% |
| Cc1cc(OC2CCN(C(C)c3ccc4c(n3)OCCO4)CC2)cc(C)n1 (single isomer, unassigned) [Compound 3] | 103% | 50.1 nM | 83% | 251 nM | – | – |
| COc1cc(OC2CCN(C(C)c3nc4c(cc3F)OCCO4)CC2)ncc1C#N (stereo not drawn) [Compound 153] | – | 31.6 nM | – | 200 nM | 95% | 67% |

| SMILES | Enzymatic Emax (%) [1] | IC50 [1] | Cellular Emax (%) (OGA) | EC50 (OGA) | Emax [1] | Emax (OGA) |
| --- | --- | --- | --- | --- | --- | --- |
| CCc1cc(OC2CCN(C(C)c3ccc4c(n3)OCCO4)CC2)cc(C)n1 (stereo not drawn) [Compound 129] | – | 63.1 nM | – | 126 nM | 97% | 83% |
| CC(c1ccc2c(n1)OCCO2)N1CCC(Oc2ncc(F)cc2F)CC1 (stereo not drawn) [Compound 52] | – | 501 nM | – | > 1000 nM | 96% | 16% |
| COc1cc(OC2CCN(C(C)c3cnc4c(c3)OCCO4)CC2)cc(C)n1 (stereo not drawn) [Compound 37] | – | 398 nM | – | > 1000 nM | 98% | 23% |
| Cc1cc(OC2CCN([C@H](C)c3ccc4c(n3)OCCO4)CC2)cc(C(F)(F)F)n1 (single isomer, unassigned) [Compound 146] | – | 6310 nM | – | > 1000 nM | 58% | 2% |
| Cc1ncc(OC2CCN(C(C)c3ccc4c(n3)OCCO4)CC2)cc1F (stereo not drawn) [Compound 152] | – | 100 nM | – | – | 93% | 42% |
| COc1cc(OC2CCN(C(C)c3ccc4sc(C)nc4n3)CC2)cc(C)n1 (stereo not drawn) [Compound 16] | – | 25.1 nM | – | 126 nM | 99% | 91% |
| C[C@@H](c1ccc2c(n1)OCCO2)N1CCC(Oc2ccc(C#N)nn2)CC1 [Compound 107] | – | 158 nM | – | 631 nM | 96% | 51% |
| C[C@@H](c1nc2c(cc1F)OCCO2)N1CCC(Oc2ccc(C#N)nn2)CC1 (single isomer, unassigned) [Compound 86] | – | 15.8 nM | – | 100 nM | 94% | 100% |
| Cc1cc(OC2CCN([C@H](C)c3ccc4c(n3)OCC4)CC2)cc(C)n1 (single isomer, unassigned) [Compound 61] | – | 15.8 nM | – | 79.4 nM | 95% | 87% |
| CC(C)c1ncc(OC2CCN(C(C)c3ccc4c(n3)OCCO4)CC2)cn1 (stereo not drawn) [Compound 119] | – | 63.1 nM | – | 331 nM | 100% | 68% |
| Cc1cc(OC2CCN(C(C)c3nc4c(cc3F)OCCO4)CC2)cc(C(F)F)n1 (stereo not drawn) [Compound 63] | – | 10 nM | – | 79.4 nM | 96% | 80% |
| Cc1ccc(COC2CCN(C(C)c3nc4c(cc3F)OCCO4)CC2)cn1 (stereo not drawn) [Compound 138] | – | 20 nM | – | 158 nM | 100% | 79% |
| Cc1cc(OC2CCN(C(C)c3cnc4c(c3)OCCO4)CC2)nc(C)n1 (stereo not drawn) [Compound 13] | – | 501 nM | – | > 1000 nM | 96% | 8% |
| Cc1cc(OC2CCN(C(C)c3ccc4c(n3)OCCO4)CC2)cc(C(F)(F)F)n1 (stereo not drawn) [Compound 17] | – | 39.8 nM | – | 316 nM | 100% | 61% |
| Cc1cc(OC2CCN(C(C)c3cnc4c(c3)OCCO4)CC2)cc(C)n1 (stereo not drawn) [Compound 5] | – | 1260 nM | – | > 1000 nM | 93% | 22% |
| Cc1cc(OC2CCN([C@@H](C)c3ccc4c(n3)OCCO4)CC2)cc(C(F)(F)F)n1 (single isomer, unassigned) [Compound 147] | – | 25.1 nM | – | 200 nM | 96% | 81% |
| Cc1cc(OC2CCN(C(C)c3ccc4c(n3)OCCO4)CC2)cc(C(F)F)n1 (stereo not drawn) [Compound 64] | – | 31.6 nM | – | 316 nM | 94% | 61% |
| Cc1cccnc1OC1CCN(C(C)c2ccc3c(n2)OCCO3)CC1 (stereo not drawn) [Compound 70] | – | 398 nM | – | > 1000 nM | 98% | 46% |
| Cc1cc(OC2CCN(C(C)c3ccc4c(n3)OCCO4)CC2)cc(C)n1 (single isomer, unassigned) [Compound 2] | 29% | > 10000 nM | −14% | > 1000 nM | – | – |
